Legend:
Spodoptera frugiperda = assay: Pesticidal activity against Spodoptera frugiperda, leaf-dipping method; type: in vivo; details: counted 24, 48, 72 hours, time not given, read-out: mortality rate, Spodoptera frugiperda
Protocol: Cabbage (Daiya) leaves were cut into pieces with a diameter of 5.8 cm, dipped in the pesticide composition where the compound of Synthesis Example 2 was diluted (the solvent=distilled water+acetone 50,000 mg/L+Triton X-100 100 mg/L) for 30 seconds, and sufficiently shade-dried. Then, the shade-dried cabbage leaves were placed in a petri dish (8.8 cm in diameter) covered with filter paper and repeatedly inoculated 3-5 times with the second to the third instar larvae of Spodoptera frugiperda, 10 larvae per inoculation. In particular, the Spodoptera frugiperda larvae used were those which were provided by Chung Buk University (Korea) and bred indoors for multiple generations. Then, the Spodoptera frugiperda larvae were stored under the conditions of 16 hours of light and 8 hours of dark, 25±1° C. and 50-60% relative humidity, and the number of live Spodoptera frugiperda larvae was counted 24, 48, and 72 hours after the inoculation. Thereafter, the larvae mortality rate was calculated in the same manner as in Test Example 1 above.

[1] = tested on: Frankliniella occidentalis; assay: Pesticidal activity against Frankliniella occidentalis, spray method; type: in vivo; details: 48 h, read-out: mortality rate, Frankliniella occidentalis
In short: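 Ten F. occidentalis adults per dish sprayed with compound at 100 ppm in water/acetone 50,000 mg/L/Triton X-100 100 mg/L, then given a soybean cotyledon. Held at 25±1 °C, 50-60% RH, 16:8 h light:dark; live adults counted 48 h after inoculation to give mortality.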

SMILES	mortality at 0.1 ppm (Spodoptera frugiperda) [%]	mortality at 1 ppm (Spodoptera frugiperda) [%]	mortality at 10 ppm (Spodoptera frugiperda) [%]	mortality at 1 ppm [1] [%]	mortality at 5 ppm [1] [%]	mortality at 10 ppm [1] [%]
Cc1cc(C2=NOC(c3cc(Cl)cc(C(F)(F)F)c3)(C(F)(F)F)C2)ccc1C(=O)NC(=O)C1CC1 (racemic) [Synthesis Example 2]	100	100	100	100	100	100
CON=CNC(=O)c1ccc(C2=NOC(c3cc(Cl)cc(Cl)c3)(C(F)(F)F)C2)cc1C (stereo not drawn) [Comparative Example 1, fluxametamide]	100	100	100	7	13	50
